This experiment concerns the target T1, human S1P1 receptor (Homo sapiens, UniProt P21453).
T1 construct: expressed in transfected cells; membranes used
The experiment can be described thus: GTP γ35S binding assay for S1P1 activity. The settings on record: membranes of cells stably expressing the S1P1 receptor, test compound 0.08 to 5,000 nM, read-out: S1P1 EC50 (nM) % inhibition. The class given is biochemical. The method, then:
Compounds were synthesized and tested for S1P1 activity using the GTP γ^35S binding assay. These compounds may be assessed for their ability to activate or block activation of the human S1P1 receptor in cells stably expressing the S1P1 receptor.
GTP γ^35S binding was measured in the medium containing (mM) HEPES 25, pH 7.4, MgCl2 10, NaCl 100, dithiothreitol 0.5, digitonin 0.003%, 0.2 nM GTP γ^35S, and 5 μg membrane protein in a volume of 150 μl. Test compounds were included in the concentration range from 0.08 to 5,000 nM unless indicated otherwise. Membranes were incubated with 100 μM 5′-adenylylimidodiphosphate for 30 min, and subsequently with 10 μM GDP for 10 min on ice. Drug, solutions and membrane were mixed, and then reactions were initiated by adding GTP γ^35S and continued for 30 min at 25° C. Reaction mixtures were filtered over Whatman CF/B filters under vacuum, and washed three times with 3 mL of ice-cold buffer (HEPES 25, pH7.4, MgCl2 10 and NaCl 100). Filters were dried and mixed with scintillant, and counted for ^35S activity using […]. Agonist-induced GTP γ^35S binding was obtained by subtracting that in the absence of agonist. Binding data were analyzed using a non-linear regression method. In case of antagonist assay, the reaction mixture contained 10 nM […] in the presence of test antagonist at concentrations ranging from 0.08 to 5000 nM.
In general terms: Binding of GTPγS marks nucleotide exchange on a G protein.

T1 sequence (P21453 whole entry): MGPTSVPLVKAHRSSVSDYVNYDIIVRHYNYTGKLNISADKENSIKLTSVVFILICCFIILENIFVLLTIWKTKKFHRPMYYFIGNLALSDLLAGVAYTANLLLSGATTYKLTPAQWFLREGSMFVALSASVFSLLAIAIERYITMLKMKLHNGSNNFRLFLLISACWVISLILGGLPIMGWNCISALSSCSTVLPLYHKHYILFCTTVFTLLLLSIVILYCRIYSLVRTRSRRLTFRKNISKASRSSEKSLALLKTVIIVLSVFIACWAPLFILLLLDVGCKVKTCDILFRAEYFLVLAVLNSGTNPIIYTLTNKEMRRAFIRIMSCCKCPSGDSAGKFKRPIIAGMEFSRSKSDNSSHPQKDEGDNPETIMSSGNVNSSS

For orientation: EC50 means the concentration at which the effect is half-maximal. For `Cc1ccc(-c2nnc(SC(C)c3ccc(CN4CC(C(=O)O)C4)cc3)o2)cc1C` (stereo not shown) [Compound 1, 1-[4-(1-{[5-(3,4-Dimethylphenyl)-1,3,4-oxadiazol-2-yl]thio}ethyl)benzyl]azetidine-3-carboxylic acid], the concentration giving a half-maximal response (EC50) came out at 22.9 nM.

Values taken from patent US9120784B2, “1,3,4-oxadiazoles-2-thio azetidine derivatives as sphingosine-1 phosphate receptors modulators” (Allergan, Inc., priority 2012, dated 2015).
